Results: BindingDB's records for doi:10.1021/jm100812a (Boehringer Ingelheim Pharma, 2010)
pEC50, pIC50: −log10 of the molar value.

Legend:
TGF-beta receptor type-1 [1] = target: T1, TGF-beta receptor type-1 (Homo sapiens, UniProt P36897); experiment: Inhibition of TGFbeta receptor in human HaCaT cells assessed as Smad phosphorylation by ELISA
T1 sequence (P36897 whole entry): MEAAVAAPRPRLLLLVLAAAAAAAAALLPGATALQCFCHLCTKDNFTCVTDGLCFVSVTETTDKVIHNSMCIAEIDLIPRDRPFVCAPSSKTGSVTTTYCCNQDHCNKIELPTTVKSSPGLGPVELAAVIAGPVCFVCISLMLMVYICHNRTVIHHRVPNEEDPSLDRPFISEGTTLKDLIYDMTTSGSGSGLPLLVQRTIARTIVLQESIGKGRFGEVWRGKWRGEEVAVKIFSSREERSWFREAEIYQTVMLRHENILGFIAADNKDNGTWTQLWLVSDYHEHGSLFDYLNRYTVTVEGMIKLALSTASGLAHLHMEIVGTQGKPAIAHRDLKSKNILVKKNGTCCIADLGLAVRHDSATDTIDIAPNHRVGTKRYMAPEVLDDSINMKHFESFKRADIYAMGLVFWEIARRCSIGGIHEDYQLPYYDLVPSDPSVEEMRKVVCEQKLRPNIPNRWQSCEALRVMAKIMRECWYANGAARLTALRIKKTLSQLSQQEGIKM

[2] = target: Platelet-derived growth factor receptor alpha (Homo sapiens, UniProt P16234); experiment: Inhibition of PDGFRalpha
TGF-beta receptor type-1 [3] = target: T1, TGF-beta receptor type-1; experiment: Inhibition of TGFbeta receptor
[4] = target: Activin receptor-like kinase 1, ACVRL1 (Homo sapiens) (UniProt P37023); experiment: Inhibition of ALK1
Sequence of Activin receptor-like kinase 1, ACVRL1 (Homo sapiens) (P37023 whole entry, looked up): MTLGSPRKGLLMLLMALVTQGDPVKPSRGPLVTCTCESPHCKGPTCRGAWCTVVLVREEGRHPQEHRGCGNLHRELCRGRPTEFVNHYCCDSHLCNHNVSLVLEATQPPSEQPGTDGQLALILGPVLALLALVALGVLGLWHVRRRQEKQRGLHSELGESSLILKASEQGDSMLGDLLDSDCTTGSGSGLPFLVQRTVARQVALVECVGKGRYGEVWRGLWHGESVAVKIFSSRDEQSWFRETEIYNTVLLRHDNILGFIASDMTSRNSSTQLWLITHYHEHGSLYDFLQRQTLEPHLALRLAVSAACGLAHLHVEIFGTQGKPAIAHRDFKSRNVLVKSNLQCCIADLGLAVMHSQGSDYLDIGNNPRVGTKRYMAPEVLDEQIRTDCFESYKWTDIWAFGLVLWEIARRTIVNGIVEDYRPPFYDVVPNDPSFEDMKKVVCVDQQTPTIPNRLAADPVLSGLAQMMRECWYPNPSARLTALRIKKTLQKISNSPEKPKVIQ

Sequence of Platelet-derived growth factor receptor alpha (P16234 whole entry): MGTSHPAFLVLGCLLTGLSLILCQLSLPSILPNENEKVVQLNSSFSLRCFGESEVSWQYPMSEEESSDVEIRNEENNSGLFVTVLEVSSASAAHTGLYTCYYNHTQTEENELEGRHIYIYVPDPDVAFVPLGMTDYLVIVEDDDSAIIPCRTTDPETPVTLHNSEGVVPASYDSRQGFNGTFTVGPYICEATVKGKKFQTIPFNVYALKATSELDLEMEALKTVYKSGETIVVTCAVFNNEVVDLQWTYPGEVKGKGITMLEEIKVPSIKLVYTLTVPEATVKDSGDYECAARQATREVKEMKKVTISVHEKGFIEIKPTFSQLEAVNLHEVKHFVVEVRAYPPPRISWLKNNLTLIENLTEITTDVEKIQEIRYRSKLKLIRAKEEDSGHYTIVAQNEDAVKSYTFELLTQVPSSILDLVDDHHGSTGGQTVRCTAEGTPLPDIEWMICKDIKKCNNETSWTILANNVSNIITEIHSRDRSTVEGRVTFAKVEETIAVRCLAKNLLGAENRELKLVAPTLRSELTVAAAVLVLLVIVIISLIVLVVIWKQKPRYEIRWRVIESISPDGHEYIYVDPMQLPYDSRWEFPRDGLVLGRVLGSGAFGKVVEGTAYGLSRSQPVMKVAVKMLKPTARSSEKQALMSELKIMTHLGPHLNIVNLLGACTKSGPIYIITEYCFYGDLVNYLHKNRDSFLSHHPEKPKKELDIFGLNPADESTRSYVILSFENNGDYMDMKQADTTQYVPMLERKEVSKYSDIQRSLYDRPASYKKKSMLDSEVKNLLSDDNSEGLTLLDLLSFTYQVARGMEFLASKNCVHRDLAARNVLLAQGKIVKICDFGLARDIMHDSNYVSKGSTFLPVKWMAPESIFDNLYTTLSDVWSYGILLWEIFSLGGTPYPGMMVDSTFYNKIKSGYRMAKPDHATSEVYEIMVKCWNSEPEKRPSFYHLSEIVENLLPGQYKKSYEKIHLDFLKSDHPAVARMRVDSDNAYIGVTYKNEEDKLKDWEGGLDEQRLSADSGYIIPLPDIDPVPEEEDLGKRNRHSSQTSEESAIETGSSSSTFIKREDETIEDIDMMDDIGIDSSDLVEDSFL

| pEC50 (TGF-beta receptor type-1 [1]) | pIC50 [2] | pIC50 (TGF-beta receptor type-1 [3]) | pIC50 [4] | SMILES |
| --- | --- | --- | --- | --- |
| < 5.00 | < 5.30 | < 4.30 | – | CCN(C)C(=O)c1ccc2c(c1)NC(=O)C2C(=NC1CCN(C)CC1)c1ccccc1 (configuration not stated) [(Z)-N-ethyl-N-methyl-3-((1-methylpiperidin-4-ylamino)(phenyl)methylene)-2-oxoindoline-6-carboxamide] |
| – | – | – | 5.40 | CCN(C)C(=O)c1ccc2c(c1)NC(=O)/C2=C(\Nc1ccc(CN2CCCCC2)cc1)c1ccccc1 |
| < 5.00 | < 5.30 | < 4.30 | – | CCN(C)C(=O)c1ccc2c(c1)NC(=O)C2C(=NC1CCCCC1)c1ccccc1 (configuration not stated) [(Z)-3-((cyclohexylamino)(phenyl)methylene)-N-ethyl-N-methyl-2-oxoindoline-6-carboxamide] |
